Laboratory results from ChEMBL document CHEMBL4330132, “5-Keto-3-cyano-2,4-diaminothiophenes as selective maternal embryonic leucine zipper kinase inhibitors” (Bioorg Med Chem Lett, 2019).
pIC50: −log10 of the molar value.

Experiments:
[1] = target: Insulin receptor (Homo sapiens) (UniProt P06213); test: Binding affinity to wild-type human partial length INSR (P997 to E1318 residues) expressed in mammalian expression system assessed as residual binding level at 1 uM by Kinomescan method relative to control
[2] = target: Cyclin-dependent kinase 2 homolog (Plasmodium falciparum (isolate 3D7)) (UniProt P61075); test: Binding affinity to wild-type Plasmodium falciparum full length PK5 (M1 to N288 residues) expressed in mammalian expression system assessed as residual binding level at 1 uM by Kinomescan method relative to control
Cyclin-dependent kinase 2 homolog (Plasmodium falciparum (isolate 3D7)), sequence (P61075 whole entry, the tested form may be a part): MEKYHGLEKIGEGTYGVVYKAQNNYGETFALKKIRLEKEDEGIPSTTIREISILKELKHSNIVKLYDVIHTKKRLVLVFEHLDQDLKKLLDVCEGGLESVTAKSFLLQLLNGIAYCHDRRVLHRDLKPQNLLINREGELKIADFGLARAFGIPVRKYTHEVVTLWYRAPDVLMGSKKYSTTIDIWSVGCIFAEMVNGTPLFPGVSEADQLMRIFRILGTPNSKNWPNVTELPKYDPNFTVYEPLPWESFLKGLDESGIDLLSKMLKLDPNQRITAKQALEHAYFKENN

[3] = target: Phosphatidylinositol 4-kinase beta (Homo sapiens) (UniProt Q9UBF8); test: Binding affinity to wild-type human full length PIK4CB (M1 to M828 residues) expressed in mammalian expression system assessed as residual binding level at 1 uM by Kinomescan method relative to control
[4] = target: Myosin light chain kinase (Homo sapiens) (UniProt Q32MK0); test: Binding affinity to wild-type human partial length MLCK (D488 to K800 residues) expressed in bacterial expression system assessed as residual binding level at 1 uM by Kinomescan method relative to control
[5] = target: Cyclin-dependent kinase 19 (Homo sapiens) (UniProt Q9BWU1); test: Binding affinity to wild-type human partial length CDK11 (M1 to N360 residues) expressed in bacterial expression system assessed as residual binding level at 1 uM by Kinomescan method relative to control
[6] = target: Myosin-IIIa (Homo sapiens) (UniProt Q8NEV4); test: Binding affinity to wild-type human partial length MYO3A (M1 to K338 residues) expressed in bacterial expression system assessed as residual binding level at 1 uM by Kinomescan method relative to control
[7] = target: Dual specificity tyrosine-phosphorylation-regulated kinase 1B (Homo sapiens) (UniProt Q9Y463); test: Binding affinity to wild-type human full length DYRK1B (M1 to S629 residues) expressed in bacterial expression system assessed as residual binding level at 1 uM by Kinomescan method relative to control
Dual specificity tyrosine-phosphorylation-regulated kinase 1B (Homo sapiens), sequence (Q9Y463 whole entry, looked up, the tested form may be a part): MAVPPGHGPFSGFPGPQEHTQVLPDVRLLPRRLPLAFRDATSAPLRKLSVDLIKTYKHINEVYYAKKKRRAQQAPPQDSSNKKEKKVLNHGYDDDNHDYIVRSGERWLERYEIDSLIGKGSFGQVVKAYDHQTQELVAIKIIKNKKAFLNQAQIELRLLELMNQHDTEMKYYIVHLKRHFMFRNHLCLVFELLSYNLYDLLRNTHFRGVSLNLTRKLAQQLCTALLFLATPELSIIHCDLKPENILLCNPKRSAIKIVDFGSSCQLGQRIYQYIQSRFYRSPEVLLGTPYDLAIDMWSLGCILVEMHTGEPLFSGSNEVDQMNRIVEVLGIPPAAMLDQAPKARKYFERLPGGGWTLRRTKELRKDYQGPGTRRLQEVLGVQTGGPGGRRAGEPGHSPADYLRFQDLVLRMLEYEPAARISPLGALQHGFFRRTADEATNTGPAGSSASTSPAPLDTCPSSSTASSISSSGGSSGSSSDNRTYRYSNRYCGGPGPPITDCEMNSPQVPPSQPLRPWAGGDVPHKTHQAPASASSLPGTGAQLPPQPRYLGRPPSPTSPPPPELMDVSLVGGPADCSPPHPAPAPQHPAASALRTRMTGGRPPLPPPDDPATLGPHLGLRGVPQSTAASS

[8] = target: Serine/threonine-protein kinase VRK2 (Homo sapiens) (UniProt Q86Y07); test: Binding affinity to wild-type human partial length VRK2 (M1 to T336 residues) expressed in mammalian expression system assessed as residual binding level at 1 uM by Kinomescan method relative to control
[9] = tested on: Receptor-type tyrosine-protein kinase FLT3 (Homo sapiens), P36888 [R834Q]; test: Binding affinity to human partial length FLT3 R834Q mutant (V592 to Y969 residues) expressed in mammalian expression system assessed as residual binding level at 1 uM by Kinomescan method relative to control
[10] = target: Bone morphogenetic protein receptor type-1B (Homo sapiens) (UniProt O00238); test: Binding affinity to wild-type human partial length BMPR1B (D178 to L502 residues) expressed in mammalian expression system assessed as residual binding level at 1 uM by Kinomescan method relative to control
Bone morphogenetic protein receptor type-1B (Homo sapiens), sequence (O00238 whole entry, the tested form may be a part): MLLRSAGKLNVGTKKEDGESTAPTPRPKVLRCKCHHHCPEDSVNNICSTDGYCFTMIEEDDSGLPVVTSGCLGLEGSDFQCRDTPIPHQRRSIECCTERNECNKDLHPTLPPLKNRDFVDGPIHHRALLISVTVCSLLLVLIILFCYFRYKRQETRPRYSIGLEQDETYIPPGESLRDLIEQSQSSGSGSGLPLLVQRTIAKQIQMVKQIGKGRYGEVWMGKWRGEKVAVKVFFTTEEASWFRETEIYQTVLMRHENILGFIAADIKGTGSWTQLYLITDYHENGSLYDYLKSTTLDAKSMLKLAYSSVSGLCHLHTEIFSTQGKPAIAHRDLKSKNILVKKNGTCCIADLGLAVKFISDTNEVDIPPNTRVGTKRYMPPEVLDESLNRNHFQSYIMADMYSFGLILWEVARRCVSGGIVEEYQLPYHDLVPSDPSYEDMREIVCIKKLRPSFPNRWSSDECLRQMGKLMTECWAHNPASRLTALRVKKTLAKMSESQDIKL

[11] = tested on: Epidermal growth factor receptor (Homo sapiens), P00533 [G719C]; test: Binding affinity to human partial length EGFR G719C mutant (R669 to V1011 residues) expressed in bacterial expression system assessed as residual binding level at 1 uM by Kinomescan method relative to control
[12] = target: Death-associated protein kinase 1 (Homo sapiens) (UniProt P53355); test: Binding affinity to wild-type human partial length DAPK1 (M1 to F296 residues) expressed in bacterial expression system assessed as residual binding level at 1 uM by Kinomescan method relative to control
[13] = target: Serine/threonine-protein kinase STK11 (Homo sapiens) (UniProt Q15831); test: Binding affinity to wild-type human full length LKB1 (M1 to Q433 residues) expressed in bacterial expression system assessed as residual binding level at 1 uM by Kinomescan method relative to control
Serine/threonine-protein kinase STK11 (Homo sapiens), sequence (Q15831 whole entry, the tested form may be a part): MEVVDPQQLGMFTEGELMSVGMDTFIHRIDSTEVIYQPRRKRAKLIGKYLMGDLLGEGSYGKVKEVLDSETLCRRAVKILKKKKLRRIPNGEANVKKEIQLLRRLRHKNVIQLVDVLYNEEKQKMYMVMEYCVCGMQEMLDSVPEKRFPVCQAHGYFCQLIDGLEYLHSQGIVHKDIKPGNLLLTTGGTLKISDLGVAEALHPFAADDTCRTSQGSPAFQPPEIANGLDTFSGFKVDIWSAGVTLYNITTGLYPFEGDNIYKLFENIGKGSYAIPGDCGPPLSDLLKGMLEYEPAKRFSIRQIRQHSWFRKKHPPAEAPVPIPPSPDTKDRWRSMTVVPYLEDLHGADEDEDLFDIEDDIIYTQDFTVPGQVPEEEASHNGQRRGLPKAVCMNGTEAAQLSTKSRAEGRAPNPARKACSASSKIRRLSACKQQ

[14] = target: SRSF protein kinase 2 (Homo sapiens) (UniProt P78362); test: Binding affinity to wild-type human full length SRPK2 (M1 to S686 residues) expressed in bacterial expression system assessed as residual binding level at 1 uM by Kinomescan method relative to control
SRSF protein kinase 2 (Homo sapiens), sequence (P78362 whole entry, looked up, the tested form may be a part): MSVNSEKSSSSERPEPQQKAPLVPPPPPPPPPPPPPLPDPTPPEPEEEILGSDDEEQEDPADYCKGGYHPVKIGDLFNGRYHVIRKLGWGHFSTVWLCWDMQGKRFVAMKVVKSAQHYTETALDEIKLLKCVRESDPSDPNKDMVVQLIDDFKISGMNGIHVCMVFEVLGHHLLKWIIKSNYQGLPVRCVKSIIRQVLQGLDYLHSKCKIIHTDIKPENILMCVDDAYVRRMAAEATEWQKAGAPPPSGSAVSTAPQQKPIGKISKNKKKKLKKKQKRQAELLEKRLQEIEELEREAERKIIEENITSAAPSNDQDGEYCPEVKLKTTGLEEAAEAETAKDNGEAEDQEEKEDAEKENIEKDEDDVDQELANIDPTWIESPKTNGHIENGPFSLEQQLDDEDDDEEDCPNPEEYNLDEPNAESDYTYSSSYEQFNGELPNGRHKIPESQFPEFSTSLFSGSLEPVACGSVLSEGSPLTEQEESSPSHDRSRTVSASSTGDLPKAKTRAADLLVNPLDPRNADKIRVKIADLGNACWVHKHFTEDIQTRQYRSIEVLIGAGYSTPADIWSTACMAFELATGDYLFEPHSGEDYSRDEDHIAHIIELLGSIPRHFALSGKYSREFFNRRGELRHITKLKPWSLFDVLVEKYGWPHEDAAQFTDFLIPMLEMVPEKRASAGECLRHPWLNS

[15] = target: Maternal embryonic leucine zipper kinase (Homo sapiens, UniProt Q14680); test: Inhibition of recombinant human MELK expressed in Escherichia coli using ZIPtide as substrate measured after 0.5 hrs by ADP-Glo assay
[16] = target: Mitogen-activated protein kinase kinase kinase 11 (Homo sapiens) (UniProt Q16584); test: Binding affinity to wild-type human partial length MLK3 (I77 to W399 residues) expressed in bacterial expression system assessed as residual binding level at 1 uM by Kinomescan method relative to control
[17] = target: Serine/threonine-protein kinase 17B (Homo sapiens) (UniProt O94768); test: Binding affinity to wild-type human full length DRAK2 (M1 to C372 residues) expressed in bacterial expression system assessed as residual binding level at 1 uM by Kinomescan method relative to control
Serine/threonine-protein kinase 17B (Homo sapiens), sequence (O94768 whole entry, the tested form may be a part): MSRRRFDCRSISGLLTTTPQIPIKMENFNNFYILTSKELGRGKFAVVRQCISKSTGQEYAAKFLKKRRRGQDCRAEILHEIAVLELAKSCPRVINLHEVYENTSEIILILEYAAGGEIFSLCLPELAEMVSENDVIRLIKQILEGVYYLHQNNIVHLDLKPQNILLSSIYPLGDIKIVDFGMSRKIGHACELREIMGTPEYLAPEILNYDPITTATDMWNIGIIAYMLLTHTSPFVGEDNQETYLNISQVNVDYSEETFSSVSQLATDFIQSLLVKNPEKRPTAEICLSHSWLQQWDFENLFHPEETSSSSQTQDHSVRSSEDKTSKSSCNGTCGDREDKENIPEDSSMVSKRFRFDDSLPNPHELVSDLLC

[18] = target: Interleukin-1 receptor-associated kinase 3 (Homo sapiens) (UniProt Q9Y616); test: Binding affinity to wild-type human partial length IRAK3 (V147 to E596 residues) expressed in bacterial expression system assessed as residual binding level at 1 uM by Kinomescan method relative to control
[19] = target: Mitogen-activated protein kinase kinase kinase 19 (Homo sapiens) (UniProt Q56UN5); test: Binding affinity to wild-type human partial length YSK4 (T1019 to H1328 residues) expressed in mammalian expression system assessed as residual binding level at 1 uM by Kinomescan method relative to control
Mitogen-activated protein kinase kinase kinase 19 (Homo sapiens), sequence (Q56UN5 whole entry, the tested form may be a part): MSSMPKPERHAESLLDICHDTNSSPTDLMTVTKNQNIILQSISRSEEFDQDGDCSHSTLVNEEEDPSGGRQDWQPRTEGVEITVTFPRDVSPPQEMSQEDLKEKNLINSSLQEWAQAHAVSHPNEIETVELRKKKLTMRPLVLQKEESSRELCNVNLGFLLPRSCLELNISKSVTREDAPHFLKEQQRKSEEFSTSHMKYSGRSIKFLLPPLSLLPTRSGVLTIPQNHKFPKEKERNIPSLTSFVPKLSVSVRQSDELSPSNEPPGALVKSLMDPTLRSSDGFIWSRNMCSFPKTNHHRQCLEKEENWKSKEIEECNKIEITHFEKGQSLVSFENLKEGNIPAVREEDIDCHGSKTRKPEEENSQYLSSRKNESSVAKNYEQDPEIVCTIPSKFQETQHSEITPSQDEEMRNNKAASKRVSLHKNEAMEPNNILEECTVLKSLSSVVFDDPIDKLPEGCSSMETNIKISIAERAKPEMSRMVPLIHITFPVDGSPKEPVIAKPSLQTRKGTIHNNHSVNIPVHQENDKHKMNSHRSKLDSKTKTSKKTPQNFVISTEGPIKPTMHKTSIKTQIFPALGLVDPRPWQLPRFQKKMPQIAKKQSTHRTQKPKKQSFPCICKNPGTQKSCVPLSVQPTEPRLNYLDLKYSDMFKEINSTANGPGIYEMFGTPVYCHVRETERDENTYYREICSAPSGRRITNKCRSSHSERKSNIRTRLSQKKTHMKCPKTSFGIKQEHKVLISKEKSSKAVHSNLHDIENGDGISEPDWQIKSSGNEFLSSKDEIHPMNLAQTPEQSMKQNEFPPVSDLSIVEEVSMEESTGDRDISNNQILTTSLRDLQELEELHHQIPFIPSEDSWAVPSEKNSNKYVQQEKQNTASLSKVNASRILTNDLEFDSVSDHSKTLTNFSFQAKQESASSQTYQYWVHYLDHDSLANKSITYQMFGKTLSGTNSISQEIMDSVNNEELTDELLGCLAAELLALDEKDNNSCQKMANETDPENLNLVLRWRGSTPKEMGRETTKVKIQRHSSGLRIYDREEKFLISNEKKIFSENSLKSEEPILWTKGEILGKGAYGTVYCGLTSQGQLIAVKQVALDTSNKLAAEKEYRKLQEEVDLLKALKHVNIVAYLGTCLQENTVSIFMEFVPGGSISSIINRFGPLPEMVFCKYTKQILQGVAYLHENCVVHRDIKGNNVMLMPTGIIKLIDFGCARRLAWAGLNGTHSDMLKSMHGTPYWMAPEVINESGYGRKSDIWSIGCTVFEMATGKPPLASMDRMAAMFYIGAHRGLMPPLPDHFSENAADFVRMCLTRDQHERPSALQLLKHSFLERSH

[20] = target: Serine/threonine-protein kinase NIM1 (Homo sapiens) (UniProt Q8IY84); test: Binding affinity to wild-type human partial length NIM1 (Q44 to N355 residues) expressed in mammalian expression system assessed as residual binding level at 1 uM by Kinomescan method relative to control
Serine/threonine-protein kinase NIM1 (Homo sapiens), sequence (Q8IY84 whole entry, the tested form may be a part): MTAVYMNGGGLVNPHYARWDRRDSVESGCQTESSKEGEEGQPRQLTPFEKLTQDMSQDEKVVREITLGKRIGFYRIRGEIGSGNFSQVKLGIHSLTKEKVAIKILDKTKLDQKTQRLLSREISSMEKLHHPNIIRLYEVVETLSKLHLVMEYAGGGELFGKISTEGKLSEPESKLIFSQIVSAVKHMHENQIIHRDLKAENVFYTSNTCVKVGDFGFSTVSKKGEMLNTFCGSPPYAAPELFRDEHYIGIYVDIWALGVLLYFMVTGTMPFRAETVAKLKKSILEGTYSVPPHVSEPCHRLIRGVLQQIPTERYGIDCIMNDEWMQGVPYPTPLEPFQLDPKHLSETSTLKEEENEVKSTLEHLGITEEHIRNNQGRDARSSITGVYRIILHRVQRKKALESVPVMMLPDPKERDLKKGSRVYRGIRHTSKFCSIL

[21] = target: Calcium/calmodulin-dependent protein kinase type II subunit gamma (Homo sapiens) (UniProt Q13555); test: Binding affinity to wild-type human partial length CAMK2G (R9 to A303 residues) expressed in bacterial expression system assessed as residual binding level at 1 uM by Kinomescan method relative to control
[22] = target: Serine/threonine-protein kinase Nek1 (Homo sapiens) (UniProt Q96PY6); test: Binding affinity to wild-type human partial length NEK1 (M1 to K278 residues) expressed in bacterial expression system assessed as residual binding level at 1 uM by Kinomescan method relative to control
[23] = target: Serine/threonine-protein kinase RIO1 (Homo sapiens) (UniProt Q9BRS2); test: Binding affinity to wild-type human full length RIOK1 (M1 to K568 residues) expressed in bacterial expression system assessed as residual binding level at 1 uM by Kinomescan method relative to control
[24] = target: Aurora kinase B (Homo sapiens) (UniProt Q96GD4); test: Binding affinity to wild-type human partial length AURKB (D25 to A303 residues) expressed in mammalian expression system assessed as residual binding level at 1 uM by Kinomescan method relative to control
Aurora kinase B (Homo sapiens), sequence (Q96GD4 whole entry, the tested form may be a part): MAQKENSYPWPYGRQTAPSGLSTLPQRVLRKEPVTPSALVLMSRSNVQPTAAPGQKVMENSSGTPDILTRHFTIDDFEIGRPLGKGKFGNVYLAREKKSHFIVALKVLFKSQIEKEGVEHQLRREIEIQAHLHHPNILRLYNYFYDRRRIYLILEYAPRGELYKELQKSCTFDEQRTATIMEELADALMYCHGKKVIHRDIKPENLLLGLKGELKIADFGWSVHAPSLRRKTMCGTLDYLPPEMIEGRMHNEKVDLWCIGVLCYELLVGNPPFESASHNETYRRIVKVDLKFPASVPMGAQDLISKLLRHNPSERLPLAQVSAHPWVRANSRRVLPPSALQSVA

[25] = target: Serine/threonine-protein kinase DCLK3 (Homo sapiens) (UniProt Q9C098); test: Binding affinity to wild-type human partial length DCAMKL3 (E140 to V628 residues) expressed in bacterial expression system assessed as residual binding level at 1 uM by Kinomescan method relative to control

SMILES: CC(C)Nc1sc(C(=O)c2ccc(Cl)s2)c(N)c1C#N
- Activity [1]: 80%
- Activity [2]: 94%
- Activity [3]: 100%
- Activity [4]: 71%
- Activity [5]: 83%
- Activity [6]: 75%
- Activity [7]: 64%
- Activity [8]: 100%
- Activity [9]: 99%
- Activity [10]: 94%
- Activity [11]: 100%
- Activity [12]: 100%
- Activity [13]: 89%
- Activity [14]: 93%
- pIC50 [15]: 6.72
- Activity [16]: 100%
- Activity [17]: 37%
- Activity [18]: 86%
- Activity [19]: 100%
- Activity [20]: 97%
- Activity [21]: 74%
- Activity [22]: 79%
- Activity [23]: 74%
- Activity [24]: 100%
- Activity [25]: 100%
